Laboratory results reported in patent EP0004261A2, “Imidazole derivatives, method for their preparation and pharmaceutical compositions containing them” (F. HOFFMANN-LA ROCHE & CO. Aktiengesellschaft, priority 1978, dated 1979).

System: Bastardhunde
Experiment: Coronary-dilating / haemodynamic effect in anaesthetised open-chest dogs (electromagnetic flowmeter, aortic catheter, tachograph)
Settings: Dosis i.v. 1 mg/kg in Propylenglykol, n = 3
[1] = maximal effect in percent of baseline

2-Aethyl-N^5(oder N^4)-nitro-1-(2,3,5-tri-O-nitro-ß-D-ribofuranosyl)imidazol-4,5-dicarboxamid [mit R1 = CH3; R2 = H]
BP [min] (arterieller Blutdruck, Wirkungsdauer) (duration of effect): >60 min
CABF [min] (Coronarfluss, Wirkungsdauer) (duration of effect): >60 min
HR [min] (Herzfrequenz, Wirkungsdauer) (duration of effect): >60 min
PL [min] (Druckgradient, Wirkungsdauer) (duration of effect): 60 min
BP Δ % (arterieller Blutdruck) [1]: -32%
CABF Δ % (Coronarfluss) [1]: -19%
HR Δ % (Herzfrequenz) [1]: -6%
PL Δ % (Druckgradient, Aortadruck minus peripherem Coronardruck) [1]: -24%
